Measurements published in PMC7006757, “Design, synthesis and in vitro biological evaluation of quinazolinone derivatives as EGFR inhibitors for antitumor treatment” (Journal of Enzyme Inhibition and Medicinal Chemistry, 2020).

Experiments:
EGFR^wt-TK = biological target: T1, EGFR^wt-TK (Homo sapiens, UniProt P00533); experiment: In vitro EGFR^wt-TK assay (ELISA with recombinant EGFR); type: biochemical; conditions: mean ± SD of three replicates; for inhibition at 1 µM: read-out: EGFR^wt-TK inhibition rate (%, 1 μM)
T1 construct: purchased Sino Biology Inc
Description: Recombinant EGFR was purchased from Sino Biology Inc. Antiphosphotyrosine mouse mAb was purchased from PTM Bio. The effects of compounds on the activity of wild type EGFR tyrosine kinase were determined by enzyme-linked immunosorbent assays (ELISAs) with recombinant EGFR according to reported methods.

PC-3 cells = experiment: MTT assay, PC-3; conditions: Homo sapiens; for IC50: PC-3, read-out: IC50 (μM) PC-3; for inhibition at 10 µM: PC-3, read-out: Inhibition rate (%, 10 μM) PC-3
A549 cells [1] = experiment: MTT assay, A549; conditions: Homo sapiens; for IC50: A549, read-out: IC50 (μM) A549; for inhibition at 10 µM: A549, read-out: Inhibition rate (%, 10 μM) A549
SMMC-7721 cells = experiment: MTT assay, SMMC-7721; conditions: Homo sapiens; for IC50: SMMC-7721, read-out: IC50 (μM) SMMC-7721; for inhibition at 10 µM: SMMC-7721, read-out: Inhibition rate (%, 10 μM) SMMC-7721
A549 cells [2] = experiment: Cell cycle analysis, PI flow cytometry; type: cell-based, human; conditions: for Percentage of cells in G0/G1 / Percentage of cells in G2/M / Percentage of cells in S: 48 h
A549 cells [3] = experiment: Cell apoptosis analysis, Annexin V-FITC/PI flow cytometry; type: cell-based, human; conditions: A549, 5, 10, 20 μM, 48 h
EGFR = conditions: Figure 2; read-out: Reported EGFR inhibitors: IC50; cited from earlier work

T1 sequence (P00533 25-1210): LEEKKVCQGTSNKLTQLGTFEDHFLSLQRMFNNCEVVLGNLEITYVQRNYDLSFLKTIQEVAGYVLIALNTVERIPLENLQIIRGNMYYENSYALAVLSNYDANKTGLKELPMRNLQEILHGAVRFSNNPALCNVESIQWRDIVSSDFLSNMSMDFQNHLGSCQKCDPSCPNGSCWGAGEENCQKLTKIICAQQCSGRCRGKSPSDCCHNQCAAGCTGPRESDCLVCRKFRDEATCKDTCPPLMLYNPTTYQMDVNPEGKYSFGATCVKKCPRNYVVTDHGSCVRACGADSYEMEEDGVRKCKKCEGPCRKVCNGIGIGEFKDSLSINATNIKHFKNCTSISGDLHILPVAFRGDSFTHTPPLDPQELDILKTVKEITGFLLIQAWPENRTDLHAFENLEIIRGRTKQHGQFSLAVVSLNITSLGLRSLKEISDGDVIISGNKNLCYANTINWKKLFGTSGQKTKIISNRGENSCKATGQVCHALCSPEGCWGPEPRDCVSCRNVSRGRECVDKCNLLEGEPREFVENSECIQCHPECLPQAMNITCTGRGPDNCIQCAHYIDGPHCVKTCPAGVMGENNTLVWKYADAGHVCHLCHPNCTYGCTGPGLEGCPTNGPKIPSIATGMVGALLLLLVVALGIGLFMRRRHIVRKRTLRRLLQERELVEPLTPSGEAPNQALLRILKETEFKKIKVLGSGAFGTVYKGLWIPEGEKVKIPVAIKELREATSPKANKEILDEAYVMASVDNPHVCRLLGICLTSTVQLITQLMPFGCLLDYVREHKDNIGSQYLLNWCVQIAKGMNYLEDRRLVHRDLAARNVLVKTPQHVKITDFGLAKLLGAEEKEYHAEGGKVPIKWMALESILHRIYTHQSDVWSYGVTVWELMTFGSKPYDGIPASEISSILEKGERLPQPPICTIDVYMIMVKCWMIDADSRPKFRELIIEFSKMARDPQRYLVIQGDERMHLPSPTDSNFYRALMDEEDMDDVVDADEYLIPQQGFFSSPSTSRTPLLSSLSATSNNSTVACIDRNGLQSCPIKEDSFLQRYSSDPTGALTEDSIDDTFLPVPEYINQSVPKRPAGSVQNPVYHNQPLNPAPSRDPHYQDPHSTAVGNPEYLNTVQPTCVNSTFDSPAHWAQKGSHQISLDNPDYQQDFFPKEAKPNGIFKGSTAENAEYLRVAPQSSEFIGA

SMILES	inhibition at 1 µM (EGFR^wt-TK)	inhibition at 10 µM (PC-3 cells)	inhibition at 10 µM (A549 cells [1])	inhibition at 10 µM (SMMC-7721 cells)	melting point	other results
O=c1[nH]cc(F)c(=O)[nH]1 [5-Fluorouracil, reference compound]	63.4 ± 1.69%	29.3 ± 1.24%	40.4 ± 1.15%	29.1 ± 2.75%	–	IC50 (EGFR^wt-TK): 0.14 ± 0.011 µM; IC50 (PC-3 cells): 22.5 ± 0.74 µM; IC50 (A549 cells [1]): 1.53 ± 0.72 µM; IC50 (SMMC-7721 cells): 11.4 ± 1.95 µM
Cn1c(COc2ccc(/C=N/c3ccccc3)cc2)nc2ccccc2c1=O [5a, (E)-3-methyl-2-((4-((phenylimino)methyl)phenoxy)methyl)quinazolin-4(3H)-one]	1.91 ± 0.91%	7.36 ± 2.38%	15.4 ± 1.52%	15.1 ± 5.91%	150 to 152 °C	–
Cc1ccccc1/N=C/c1ccc(OCc2nc3ccccc3c(=O)n2C)cc1 [5b, (E)-3-methyl-2-((4-((o-tolylimino)methyl)phenoxy)methyl)quinazolin-4(3H)-one]	2.57 ± 1.25%	23.9 ± 8.59%	14.5 ± 4.09%	24.3 ± 1.7%	162 to 164 °C	–
Cc1ccc(/N=C/c2ccc(OCc3nc4ccccc4c(=O)n3C)cc2)cc1 [5c, (E)-3-methyl-2-((4-((p-tolylimino)methyl)phenoxy)methyl)quinazolin-4(3H)-one]	50.8 ± 3.29%	7.46 ± 0.52%	12.1 ± 2%	31.8 ± 9.91%	182 to 184 °C	–
COc1ccccc1/N=C/c1ccc(OCc2nc3ccccc3c(=O)n2C)cc1 [5d, (E)-2-((4-(((2-methoxyphenyl)imino)methyl)phenoxy)methyl)-3-methylquinazolin-4(3H)-one]	38.7 ± 1.83%	38.2 ± 1.4%	20.8 ± 4.81%	2.78 ± 4.23%	141 to 143 °C	–
COc1ccc(/N=C/c2ccc(OCc3nc4ccccc4c(=O)n3C)cc2)cc1 [5e, (E)-2-((4-(((4-methoxyphenyl)imino)methyl)phenoxy)methyl)-3-methylquinazolin-4(3H)-one]	53.6 ± 1.25%	40.2 ± 3.57%	25.9 ± 7.46%	20.1 ± 9.11%	180 to 182 °C	–
Cn1c(COc2ccc(/C=N/c3ccccc3F)cc2)nc2ccccc2c1=O [5f, (E)-2-((4-(((2-fluorophenyl)imino)methyl)phenoxy)methyl)-3-methylquinazolin-4 (3H)-one]	1.31 ± 3.64%	5.46 ± 0.28%	16.3 ± 1.43%	2.65 ± 1.81%	143 to 145 °C	–
Cn1c(COc2ccc(/C=N/c3cccc(F)c3)cc2)nc2ccccc2c1=O [5g, (E)-2-((4-(((3-fluorophenyl)imino)methyl)phenoxy)methyl)-3-methylquinazolin-4(3H)-one]	65 ± 1.51%	4.76 ± 0.51%	15.6 ± 2.56%	35.6 ± 1.27%	168 to 170 °C	IC50 (EGFR^wt-TK): 0.047 ± 0.004 µM; IC50 (PC-3 cells): 30.1 ± 1.86 µM; IC50 (A549 cells [1]): 19.7 ± 2.34 µM; IC50 (SMMC-7721 cells): 35.9 ± 5.85 µM
Cn1c(COc2ccc(/C=N/c3ccc(F)cc3)cc2)nc2ccccc2c1=O [5h, (E)-2-((4-(((4-fluorophenyl)imino)methyl)phenoxy)methyl)-3-methylquinazolin-4(3H)-one]	56.2 ± 2.16%	14.8 ± 2.3%	14.8 ± 5.06%	22.9 ± 1.66%	200 to 202 °C	–
Cn1c(COc2ccc(/C=N/c3cccc(Cl)c3)cc2)nc2ccccc2c1=O [5i, (E)-2-((4-(((3-chlorophenyl)imino)methyl)phenoxy)methyl)-3-methylquinazolin-4(3H)-one]	1.04 ± 0.91%	9.6 ± 2.69%	23.3 ± 7.52%	13.1 ± 2.92%	179 to 181 °C	–
Cn1c(COc2ccc(/C=N/c3cccc(Br)c3)cc2)nc2ccccc2c1=O [5j, (E)-2-((4-(((3-bromophenyl)imino)methyl)phenoxy)methyl)-3-methylquinazolin-4(3H)-one]	53.3 ± 1.58%	17.9 ± 6.12%	18 ± 6.69%	18.6 ± 1.51%	176 to 178 °C	–
Cn1c(COc2ccc(/C=N/c3ccc(F)c(F)c3)cc2)nc2ccccc2c1=O [5k, (E)-2-((4-(((3,4-difluorophenyl)imino)methyl)phenoxy)methyl)-3-methylquinazolin-4(3H)-one]	63.4 ± 1.83%	57.5 ± 2.77%	27 ± 1.63%	34.9 ± 4.72%	152 to 154 °C	IC50 (EGFR^wt-TK): 0.01 ± 0.001 µM; IC50 (PC-3 cells): 17.1 ± 3.61 µM; IC50 (A549 cells [1]): 12.3 ± 4.12 µM; IC50 (SMMC-7721 cells): 15.7 ± 1.64 µM; Percentage of cells in G0/G1 (A549 cells [2]; A549, 5 μM): 61.23%; Percentage of cells in G2/M (A549 cells [2]; A549, 5 μM): 25.31%; Percentage of cells in S (A549 cells [2]; A549, 5 μM): 13.46%; Percentage of cells in G0/G1 (A549 cells [2]; A549, 10 μM): 62.42%; Percentage of cells in G2/M (A549 cells [2]; A549, 10 μM): 23.10%; Percentage of cells in S (A549 cells [2]; A549, 10 μM): 14.48%; Cell cycle arrest of A549 cells (A549 cells [2]; A549, 48 h): arrested in the G2/M phase; Induction of apoptosis in A549 cells (A549 cells [3]): induces cellular apoptosis in a concentration-dependent way
Cn1c(COc2ccc(/C=N/c3cc(F)cc(F)c3)cc2)nc2ccccc2c1=O [5l, (E)-2-((4-(((3,5-difluorophenyl)imino)methyl)phenoxy)methyl)-3-methylquinazolin-4(3H)-one]	61.9 ± 1.51%	54.3 ± 7.59%	31.2 ± 2.49%	41 ± 2.63%	220 to 221 °C	IC50 (EGFR^wt-TK): 0.54 ± 0.031 µM; IC50 (PC-3 cells): 13.3 ± 1.12 µM; IC50 (A549 cells [1]): 7.22 ± 3.51 µM; IC50 (SMMC-7721 cells): 6.04 ± 0.55 µM
Cn1c(COc2ccc(/C=N/c3c(F)cccc3F)cc2)nc2ccccc2c1=O [5m, (E)-2-((4-(((2,6-difluorophenyl)imino)methyl)phenoxy)methyl)-3-methylquinazolin-4(3H)-one]	25.8 ± 1.92%	26.8 ± 0.59%	15.2 ± 3.61%	15.1 ± 5.79%	181 to 183 °C	–
Cn1c(COc2ccc(/C=N/c3ccc(F)cc3F)cc2)nc2ccccc2c1=O [5n, (E)-2-((4-(((2,4-difluorophenyl)imino)methyl)phenoxy)methyl)-3-methylquinazolin-4(3H)-one]	48.4 ± 0.35%	25.8 ± 4.84%	33.3 ± 3.63%	11.5 ± 2.87%	181 to 183 °C	–
Cn1c(COc2ccc(/C=N/c3ccc(F)c(Cl)c3)cc2)nc2ccccc2c1=O [5o, (E)-2-((4-(((3-chloro-4-fluorophenyl)imino)methyl)phenoxy)methyl)-3-methyl quinazolin-4(3H)-one]	16.7 ± 2.99%	13.9 ± 0.92%	18.7 ± 9.78%	24.5 ± 1.37%	188 to 189 °C	–
Cn1c(COc2ccc(/C=N/c3ccc(Cl)c(C(F)(F)F)c3)cc2)nc2ccccc2c1=O [5p, (E)-2-((4-(((4-chloro-3-(trifluoromethyl)phenyl)imino)methyl)phenoxy)methyl)-3-methylquinazolin-4(3H)-one]	4.32 ± 1.92%	22.6 ± 1.28%	15.6 ± 2.66%	17.5 ± 2.67%	163 to 164 °C	–
COc1cc2ncnc(Nc3ccc(F)c(Cl)c3)c2cc1OCCCN1CCOCC1 [Gefitinib, reference compound]	–	–	–	–	–	Percentage of cells in G0/G1 (A549 cells [2]; A549, 5 μM): 58.50%; Percentage of cells in S (A549 cells [2]; A549, 5 μM): 12.03%; Percentage of cells in G0/G1 (A549 cells [2]; A549, 10 μM): 62.15%; Percentage of cells in S (A549 cells [2]; A549, 10 μM): 13.56%
N[C@@H](Cc1ccccc1)C(=O)Nn1c(-c2ccc(F)cc2)nc2ccc(F)cc2c1=O [II]	–	–	–	–	–	IC50 (EGFR): 0.164 µM
COc1ccc(-c2nnc(-n3c(-c4ccccc4)nc4cc(Cl)ccc4c3=O)s2)cc1 [I]	–	–	–	–	–	IC50 (EGFR): 0.32 µM
